System: Thsd1-deficient zebrafish
Assay: Intracranial hemorrhage incidence in thsd1-MO zebrafish embryos treated with autophagy inhibitors
Format: in vivo
Conditions: thsd1-MO injected zebrafish embryos; added to embryo water at 1 dpf for 24 hours; 3-MA 10 mM, wortmannin 50 nM, verteporfin 1 uM; FIG. 11
Experimental: Anti-sense morpholinos against thsd1, atg5 or talin was injected into one-cell stage zebrafish singly or in combination to silence the gene accordingly. At day 2 to day 3, embryos will be checked under regular optical microscope. Embryos with intracranial hemorrhages will be counted and imaged by Olympus microscope.
To test the hypothesis that autophagy inhibition could treat intracranial hemorrhage in-vivo 80-120 different zebrafish animals genetically engineered as described in Table 5 were treated with three distinct autophagy inhibitors, namely, 3-MA, wortmannin, or verteporfin. Control (DMSO) or other known autophagy inhibitors including 3-MA (10 mM), wortmannin (50 nM), and verteporfin (1 uM) were added to embryo water at 1 dpf for 24 hours. All embryos were injected by thsd1-MO and the hemorrhagic incidence was counted under microscope. For each injection, around 80-120 embryos were injected. *p<0.05, **p<0.01, n.s. means not significant.
After significant effort in contacting individuals and sequencing the families shown in FIG. 1A, the present disclosure first identified THSD1 as a gene associated with sub-cranial hemorrhage. In specific cases, a single codon substitution was identified as responsible for the phenotype L5F, R460W, E466G, G600E, P639L, T653I, or S775P. […]

Row | Compound | intracranial hemorrhage (hemorrhagic incidence counted under microscope)
1 | Cn1cnc(N)c2ncnc1-2 [3-MA, 3-Methyladenine] | rescued intracranial hemorrhage
2 | Verteporfin | rescued intracranial hemorrhage
